From patent US9518018B2, “3-alkoxy, thioalkyl and amino-4-amino-6-(substituted)picolinates and their use as herbicides” (Dow AgroSciences LLC, priority 2011, dated 2016)

Legend:
Assay in all cases: Post-Emergent Test I herbicidal activity
Assay type in all cases: in vivo
[1] = system: CHEAL: lambsquarters (Chenopodium album); settings: Chenopodium album, post-emergence, 336 h, read-out: Visual Growth Reduction (%)-14 Days after Application CHEAL; for pest or weed control at 140 g/ha: Table 3, 140 g ai/ha; for pest or weed control at 70 g/ha: Table 3, 70 g ai/ha; for pest or weed control at 280 g/ha: Table 3, 280 g ai/ha
Protocol: (§1) Seeds or nutlets of the desired test plant species were planted in Sun Gro Metro-Mix® 360 planting mixture, which typically has a pH of 6.0 to 6.8 and an organic matter content of about 30 percent, in plastic pots with a surface area of 64 square centimeters. When required to ensure good germination and healthy plants, a fungicide treatment and/or other chemical or physical treatment was applied. The plants were grown for 7-21 d in a greenhouse with an approximate 15 h photoperiod which was maintained at about 23-29° C. during the day and 22-28° C. during the night. Nutrients and water were added on a regular basis and supplemental lighting was provided with overhead metal halide 1000-Watt lamps as necessary. The plants were employed for testing when they reached the first or second true leaf stage.
(§2) A weighed amount, determined by the highest rate to be tested, of each test compound was placed in a 25 mL glass vial and was dissolved in 4 mL of a 97:3 v/v mixture of acetone and DMSO to obtain concentrated stock solutions. […] The concentrated stock solutions obtained were diluted with 20 mL of an aqueous mixture containing acetone, water, isopropyl alcohol, DMSO, Atplus 411F crop oil concentrate, and Triton® X-155 surfactant in a 48.5:39:10:1.5:1.0:0.02 v/v ratio to obtain spray solutions containing the highest application rates. Additional application rates were obtained by serial dilution of 12 mL of the high rate solution into a solution containing 2 mL of 97:3 v/v mixture of acetone and DMSO and 10 mL of an aqueous mixture containing acetone, water, isopropyl alcohol, DMSO, Atplus 411F crop oil concentrate, and Triton X-155 surfactant in a 48.5:39:10:1.5:1.0:0.02 v/v ratio to obtain ½×, ¼×, ⅛× and 1/16× rates of the high rate. Compound requirements are based upon a 12 mL application volume at a rate of 187 liters per hectare (L/ha). Formulated compounds were applied to the plant material with an overhead Mandel track sprayer equipped with 8002E nozzles calibrated to deliver 187 L/ha over an application area of 0.503 square meters at a spray height of 18 inches (43 cm) above the average plant canopy height. Control plants were sprayed in the same manner with the solvent blank.
(§3) The treated plants and control plants were placed in a greenhouse as described above and watered by subirrigation to prevent wash-off of the test compounds. After 14 d, the condition of the test plants as compared with that of the untreated plants was determined visually and scored on a scale of 0 to 100 percent where 0 corresponds to no injury and 100 corresponds to complete kill.
(§4) By applying the well-accepted probit analysis as described by J. Berkson in Journal of the […], 48, 565 (1953) and by D. Finney in “Probit Analysis” Cambridge University Press (1952), the above data can be used to calculate GR20, GR50 and GR80 values, which are defined as growth reduction factors that correspond to the effective dose of herbicide required to kill or control 20 percent, 50 percent or 80 percent, respectively, of a target plant.

[2] = system: ABUTH: velvetleaf (Abutilon theophrasti); settings: Abutilon theophrasti, post-emergence, 336 h, read-out: Visual Growth Reduction (%)-14 Days after Application ABUTH; for pest or weed control at 140 g/ha: Table 3, 140 g ai/ha; for pest or weed control at 70 g/ha: Table 3, 70 g ai/ha; for pest or weed control at 280 g/ha: Table 3, 280 g ai/ha
Protocol: as §1, §2, §3, §4

[3] = system: ZEAMX: corn (Zea mays); settings: Zea mays, post-emergence, 336 h, read-out: Visual Growth Reduction (%)-14 Days after Application ZEAMX; for pest or weed control at 140 g/ha: Table 3, 140 g ai/ha; for pest or weed control at 70 g/ha: Table 3, 70 g ai/ha; for pest or weed control at 280 g/ha: Table 3, 280 g ai/ha
Protocol: as §1, §2, §3, §4

[4] = system: ORYSA: rice (Oryza sativa); settings: post-emergence, 336 h, read-out: Visual Growth Reduction (%)-14 Days after Application ORYSA; for pest or weed control at 140 g/ha: Table 3, 140 g ai/ha; for pest or weed control at 70 g/ha: Table 3, 70 g ai/ha; for pest or weed control at 280 g/ha: Table 3, 280 g ai/ha
Protocol: as §1, §2, §3, §4

[5] = system: CYPES: yellow nutsedge (Cyperus esculentus); settings: post-emergence, 336 h, read-out: Visual Growth Reduction (%)-14 Days after Application CYPES; for pest or weed control at 140 g/ha: Table 3, 140 g ai/ha; for pest or weed control at 70 g/ha: Table 3, 70 g ai/ha; for pest or weed control at 280 g/ha: Table 3, 280 g ai/ha
Protocol: as §1, §2, §3, §4

[6] = system: EPHHL: wild poinsettia (Euphorbia heterophylla); settings: post-emergence, 336 h, read-out: Visual Growth Reduction (%)-14 Days after Application EPHHL; for pest or weed control at 140 g/ha: Table 3, 140 g ai/ha; for pest or weed control at 70 g/ha: Table 3, 70 g ai/ha; for pest or weed control at 280 g/ha: Table 3, 280 g ai/ha
Protocol: as §1, §2, §3, §4

[7] = system: ECHCG: barnyardgrass (Echinochloa crus-galli); settings: post-emergence, 336 h, read-out: Visual Growth Reduction (%)-14 Days after Application ECHCG; for pest or weed control at 140 g/ha: Table 3, 140 g ai/ha; for pest or weed control at 70 g/ha: Table 3, 70 g ai/ha; for pest or weed control at 280 g/ha: Table 3, 280 g ai/ha
Protocol: as §1, §2, §3, §4

Q: COc1c(C(=O)O)nc(-c2ccc(C3CC3)nc2)c(F)c1N [Compound 77, 4-amino-6′-cyclopropyl-3-fluoro-5-methoxy-[2,3′-bipyridine]-6-carboxylic acid] was tested. Which pest or weed control at 140 g/ha [1] did it give?
A: 75%

Q: What about the pest or weed control at 140 g/ha [2] of the same molecule?
A: 80%

Q: What about the pest or weed control at 140 g/ha [3] of the same molecule?
A: 95%

Q: And the pest or weed control at 140 g/ha [4]?
A: 65%

Q: And the pest or weed control at 140 g/ha [5]?
A: 90%

Q: What about the pest or weed control at 140 g/ha [6] of the same molecule?
A: 95%

Q: What about the pest or weed control at 140 g/ha [7] of the same molecule?
A: 85%

Q: Which results are given for COC(=O)c1nc(-c2ccc(Br)cc2F)c(F)c(N)c1OC [Compound 22]?
A: pest or weed control at 140 g/ha [1]: 100%; pest or weed control at 140 g/ha [2]: 60%; pest or weed control at 140 g/ha [3]: 70%; pest or weed control at 140 g/ha [4]: 0%; pest or weed control at 140 g/ha [5]: 50%; pest or weed control at 140 g/ha [6]: 100%; pest or weed control at 140 g/ha [7]: 90%

Q: How did the pest or weed control at 140 g/ha [1] turn out when COc1c(C(=O)O)nc(-c2ccc(Cl)c(C(C)F)c2F)c(F)c1N (stereo not drawn) [Compound 65] was run?
A: 100%

Q: What about the pest or weed control at 140 g/ha [2] of the same molecule?
A: 100%

Q: And the pest or weed control at 140 g/ha [3]?
A: 70%

Q: And the pest or weed control at 140 g/ha [4]?
A: 0%

Q: What about the pest or weed control at 140 g/ha [5] of the same molecule?
A: 100%

Q: And the pest or weed control at 140 g/ha [6]?
A: 100%

Q: What about the pest or weed control at 140 g/ha [7] of the same molecule?
A: 65%

Q: COC(=O)c1nc(-c2ccc(I)cc2)c(F)c(N)c1OC [Compound 23, methyl 4-amino-5-fluoro-6-(4-iodophenyl)-3-methoxypicolinate] was tested. Which pest or weed control at 140 g/ha [1] did it give?
A: 100%

Q: And the pest or weed control at 140 g/ha [2]?
A: 70%

Q: And the pest or weed control at 140 g/ha [3]?
A: 70%

Q: What about the pest or weed control at 140 g/ha [4] of the same molecule?
A: 0%

Q: And the pest or weed control at 140 g/ha [5]?
A: 100%

Q: And the pest or weed control at 140 g/ha [6]?
A: 100%

Q: And the pest or weed control at 140 g/ha [7]?
A: 80%

Q: How did the pest or weed control at 140 g/ha [1] turn out when COC(=O)c1nc(-c2ccc(Cl)c(C(C)F)c2F)c(F)c(N)c1OC (stereo not drawn) [Compound 33, methyl 4-amino-6-(4-chloro-2-fluoro-3-(1-fluoroethyl)phenyl)-5-fluoro-3-methoxypicolinate] was run?
A: 100%

Q: And the pest or weed control at 140 g/ha [2]?
A: 100%

Q: What about the pest or weed control at 140 g/ha [3] of the same molecule?
A: 70%

Q: What about the pest or weed control at 140 g/ha [4] of the same molecule?
A: 0%

Q: What about the pest or weed control at 140 g/ha [5] of the same molecule?
A: 100%

Q: What about the pest or weed control at 140 g/ha [6] of the same molecule?
A: 100%

Q: And the pest or weed control at 140 g/ha [7]?
A: 80%

Q: For COC(=O)c1nc(-c2ccc(I)cc2F)c(F)c(N)c1OC [Compound 26], which pest or weed control at 140 g/ha [1] is on record?
A: 90%

Q: And the pest or weed control at 140 g/ha [2]?
A: 10%

Q: And the pest or weed control at 140 g/ha [3]?
A: 75%

Q: What about the pest or weed control at 140 g/ha [4] of the same molecule?
A: 0%

Q: And the pest or weed control at 140 g/ha [5]?
A: 50%

Q: What about the pest or weed control at 140 g/ha [6] of the same molecule?
A: 100%

Q: What about the pest or weed control at 140 g/ha [7] of the same molecule?
A: 55%

Q: What does the source list for COc1c(C(=O)O)nc(-c2ccc(Br)c(F)c2F)c(F)c1N [Compound 54]?
A: pest or weed control at 70 g/ha [1]: 90%; pest or weed control at 70 g/ha [2]: 90%; pest or weed control at 70 g/ha [3]: 85%; pest or weed control at 70 g/ha [4]: 5%; pest or weed control at 70 g/ha [5]: 100%; pest or weed control at 70 g/ha [6]: 100%; pest or weed control at 70 g/ha [7]: 90%

Q: With Nc1cc(-c2ccc(Cl)cc2F)nc(C(=O)O)c1OCC(F)(F)F [Compound 70] as the molecule, how does the pest or weed control at 280 g/ha [1] read?
A: 25%

Q: And the pest or weed control at 280 g/ha [2]?
A: 50%

Q: And the pest or weed control at 280 g/ha [3]?
A: 75%

Q: What about the pest or weed control at 280 g/ha [4] of the same molecule?
A: 0%

Q: And the pest or weed control at 280 g/ha [5]?
A: 85%

Q: And the pest or weed control at 280 g/ha [6]?
A: 100%

Q: What about the pest or weed control at 280 g/ha [7] of the same molecule?
A: 0%

Q: Which results are given for COC(=O)c1nc(-c2ccc(C3CC3)nc2)c(F)c(N)c1OC [Compound 76, methyl 4-amino-6′-cyclopropyl-3-fluoro-5-methoxy-[2,3′-bipyridine]-6-carboxylate]?
A: pest or weed control at 140 g/ha [1]: 80%; pest or weed control at 140 g/ha [2]: 85%; pest or weed control at 140 g/ha [3]: 50%; pest or weed control at 140 g/ha [4]: 0%; pest or weed control at 140 g/ha [5]: 95%; pest or weed control at 140 g/ha [6]: 97%; pest or weed control at 140 g/ha [7]: 0%

Q: How did the pest or weed control at 70 g/ha [1] turn out when COC(=O)c1nc(-c2ccc(Br)c(F)c2F)c(F)c(N)c1OC [Compound 19, methyl 4-amino-6-(4-bromo-2,3-difluorophenyl)-5-fluoro-3-methoxypicolinate] was run?
A: 100%

Q: What about the pest or weed control at 70 g/ha [2] of the same molecule?
A: 85%

Q: What about the pest or weed control at 70 g/ha [3] of the same molecule?
A: 70%

Q: What about the pest or weed control at 70 g/ha [4] of the same molecule?
A: 0%

Q: And the pest or weed control at 70 g/ha [5]?
A: 90%

Q: What about the pest or weed control at 70 g/ha [6] of the same molecule?
A: 100%

Q: What about the pest or weed control at 70 g/ha [7] of the same molecule?
A: 75%

Q: Which pest or weed control at 140 g/ha [1] does the source give for CCOC(=O)c1nc(-c2ccc(Cl)cc2F)cc(N)c1SCC(F)(F)F [Compound 89, Ethyl 4-amino-6-(4-chloro-2-fluorophenyl)-3-((2,2,2-trifluoroethyl)thio)picolinate] here?
A: 70%

Q: And the pest or weed control at 140 g/ha [2]?
A: 30%

Q: What about the pest or weed control at 140 g/ha [3] of the same molecule?
A: 0%

Q: What about the pest or weed control at 140 g/ha [4] of the same molecule?
A: 0%

Q: What about the pest or weed control at 140 g/ha [5] of the same molecule?
A: 0%

Q: What about the pest or weed control at 140 g/ha [6] of the same molecule?
A: 90%

Q: And the pest or weed control at 140 g/ha [7]?
A: 0%

Q: CCOC(=O)c1nc(-c2ccc(Cl)c(OC)c2F)cc(N)c1OC(F)F [Compound 8, ethyl 4-amino-6-(4-chloro-2-fluoro-3-methoxyphenyl)-3-(difluoromethoxy)picolinate] was tested. Which pest or weed control at 280 g/ha [1] did it give?
A: 30%

Q: What about the pest or weed control at 280 g/ha [2] of the same molecule?
A: 25%

Q: And the pest or weed control at 280 g/ha [3]?
A: 0%

Q: And the pest or weed control at 280 g/ha [4]?
A: 0%

Q: What about the pest or weed control at 280 g/ha [5] of the same molecule?
A: 0%

Q: What about the pest or weed control at 280 g/ha [6] of the same molecule?
A: 90%

Q: What about the pest or weed control at 280 g/ha [7] of the same molecule?
A: 0%
